Assay type in all cases: cell-based
The test system of test [1] is Aspergillus fumigatus + Candida albicans co-culture. Description: Broth microdilution MIC assay, co-culture of spores 1:1. The procedure: Broth Microdilution Minimal Inhibitory Concentration (MIC) assays were performed to obtain the MIC values for Itraconazole and Ketoconazole with an antibiotic (Vancomycin or Tobramycin or Amikacin) against the two fungal strains.
The strains were maintained as a frozen glycerol stocks at −80° C. The fungal strains were prepared by thawing a glycerol stock, streaking and growing onto Sabouraud's Dextrose Agar (SDA) plates, overnight at 35±2° C. in aerobic conditions and used for the assay.
The completely synthetic medium RPMI-1640 (with glutamine, without bicarbonate, and with phenol red as a pH indicator) was buffered with 0.165 mol/L MOPS (3-[N-morpholino] propanesulfonic acid) buffer was used as the growth medium for the fungal strains. Overnight cultures of the fungal strains were grown on Difco™ Sabouraud's Dextrose Agar (SDA) plates at 35° C. To induce conidium and sporangiospore formation, the culture plates were transferred to incubator and grown for 5-7 days 30° C. or until good sporulation was obtained. Approximately, 10 mL of 0.85% saline containing 0.01% of Tween 80 was used to poured on to the agar plate containing conidia or sporangiospores and hyphal fragments. The suspension containing conidia or sporangiospores and hyphal fragments was aspirated and transferred to a sterile tube. This mixture was filtered to separate the spores from the vegetative cells of the fungi. The supernatant containing only fungal spores was used for all the assays. Fungal spore inoculum was prepared in RPMI-1640 (with glutamine, without bicarbonate, and with phenol red as a pH indicator) was buffered with 0.165 mol/L MOPS (3-[N-morpholino] propanesulfonic acid) buffer to a final density of 10^6 CFU/mL using a hemocytometer.
Each MIC assay included 11 2-fold serial dilutions of the antifungal agents. Test concentrations for the test articles were tested at the following concentrations: 64 μg/mL, 32 μg/mL, 16 μg/mL, 8 μg/mL, 4 μg/mL, 2 μg/mL, 1 μg/mL, 0.5 μg/mL, 0.25 μg/mL, 0.125 μg/mL, and 0.0625 μg/mL. Broth microdilution assays were performed according to the procedures detailed in CLSI document M38-A2 (CLSI, 2008). Briefly, 2× stock solutions of test articles were prepared at 128 μg/mL. A two-fold serial dilution of the stock solution were performed. Diluted stock solutions of the fungal spores were adjusted (to be equivalent to 10^6 CFU/mL). 1× final concentration of the antifungals was obtained when they were combined with the fungal spore broth in the microtiter plate. Plates were incubated for 3-5 days at 35±2° C. in an ambient air incubator. MIC values recorded are the minimum concentration of the test articles that inhibits growth as observed by unaided eye. The MIC values was expressed in μg/mL. The assay was carried out in duplicates.

Test [2] concerns S. aureus, a gram negative bacteria. Description: Culture sensitivity, Patient 7 bacterial isolate. Particulars: Patient 7 culture. From the text: (§1) The patient underwent the standard workup for CRS, sleep disorder, and nasal obstruction, plus our diagnostic skin test and sinus CT scan.
The test system of a further test is Candida albicans. As to the kind of experiment: Culture sensitivity, Patient 7 fungal isolate. Particulars: Patient 7 culture.
From the text: as §1

Setting [3] is: A. fumigatus + C. albicans co-culture, repeated MIC study (Table 4), agent alone, read-out: MIC.

Where two headings read alike, the source gives them in different places.

We go through three compounds from patent publication US20180064710A1, “ANTIFUNGAL TREATMENT OF PSORIASIS” (Gerbe Labs Inc., priority 2016, published 2018).

The term MIC denotes the lowest concentration that inhibits growth of the organism. Take `CCC(C)n1ncn(-c2ccc(N3CCN(c4ccc(OCC5COC(Cn6cncn6)(c6ccc(Cl)cc6Cl)O5)cc4)CC3)cc2)c1=O` (stereo not drawn) [Itraconazole]: the MIC in test [1] (A. fumigatus + C. albicans co-culture 1:1, first study (Table 3), read-out: MIC) was determined as 0.5 µg/mL; in test [1] (A. fumigatus + C. albicans co-culture, repeated MIC study (Table 4), agent alone, listed as Itraconazone) it was 1 µg/mL; in test [1] (setting [3]), 1 µg/mL.
Take `NC[C@H]1O[C@H](O[C@H]2[C@H](O)[C@@H](O[C@H]3O[C@H](CO)[C@@H](O)[C@H](N)[C@H]3O)[C@H](N)C[C@@H]2N)[C@H](N)C[C@@H]1O` [tobramycin]: in test [2], the “Sensitivity of cultured bacteria” value is listed as “sensitive”.
As to `CC(=O)N1CCN(c2ccc(OCC3COC(Cn4ccnc4)(c4ccc(Cl)cc4Cl)O3)cc2)CC1` (stereo not drawn) [Ketoconazole], the minimal inhibitory concentration (MIC) in test [1] (setting [3]) amounted to 8 µg/mL. In the test with Candida albicans, the “Sensitivity of cultured Candida albicans” value is reported as “sensitive”.
